Results: patent US8952024B2, “Herbicidal pyrimidone derivatives” (E I du Pont de Nemours and Company, priority 2009, dated 2015)

How the values were obtained:
Assay type in all cases: in vivo
[1] = tested on: barnyardgrass (Echinochloa crus-galli); assay: Test A pre-/postemergence plant response
Method in brief: (§1)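 Seeds planted in loam soil/sand blend; test chemicals in non-phytotoxic solvent mixture with surfactant applied as directed soil spray preemergence and, concurrently, postemergence to plants 2–10 cm tall at one- to two-leaf stage. Greenhouse ~10 days; visual injury vs untreated controls, 0 (no effect) to 100 (complete control).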

[2] = tested on: corn (Zea mays); assay: Test A pre-/postemergence plant response
Method in brief: as §1

[3] = tested on: giant foxtail (Setaria faberii); assay: Test A pre-/postemergence plant response
Method in brief: as §1

[4] = tested on: large crabgrass (Digitaria sanguinalis); assay: Test A pre-/postemergence plant response
Method in brief: as §1

[5] = tested on: morningglory (Ipomoea spp.); assay: Test A pre-/postemergence plant response
Method in brief: as §1

[6] = tested on: pigweed (Amaranthus retroflexus); assay: Test A pre-/postemergence plant response
Method in brief: as §1

[7] = tested on: velvetleaf (Abutilon theophrasti); assay: Test A pre-/postemergence plant response
Method in brief: as §1

[8] = tested on: wheat (Triticum aestivum); assay: Test A pre-/postemergence plant response
Method in brief: as §1

[9] = tested on: cocklebur (Xanthium strumarium); assay: Test B pre-/postemergence plant response
Description: (§2) Seeds of plant species selected from blackgrass (Alopecurus myosuroides), downy bromegrass (Bromus tectorum), green foxtail (Setaria viridis), Italian ryegrass (Lolium multiflorum), wheat (Triticum aestivum), wild oat (Avena fatua), deadnettle (henbit deadnettle, Lamium amplexicaule), galium (catchweed bedstraw, Galium aparine), bermudagrass (Cynodon dactylon), Surinam grass (Brachiaria decumbens), cocklebur (Xanthium strumarium), corn (Zea mays), large crabgrass (Digitaria sanguinalis), woolly cupgrass (Eriochloa villosa), giant foxtail (Setaria faberii), goosegrass (Eleusine indica), johnsongrass (Sorghum halepense), kochia (Kochia scoparia), lambsquarters (Chenopodium album), morningglory (Ipomoea coccinea), nightshade (eastern black nightshade, Solanum ptycanthum), yellow nutsedge (Cyperus esculentus), pigweed (Amaranthus retroflexus), ragweed (common ragweed, Ambrosia elatior), Russian thistle (Salsola kali), soybean (Glycine max), sunflower (common oilseed sunflower, Helianthus annuus) and velvetleaf (Abutilon theophrasti) were planted into a blend of loam soil and sand and treated preemergence with test compounds formulated in a non-phytotoxic solvent mixture which included a surfactant.
(§3) At the same time, plants selected from these crop and weed species and also winter barley (Hordeum vulgare), canarygrass (Phalaris minor), chickweed (Stellaria media) and windgrass (Apera spica-venti) were planted in pots containing Redi-Earth® planting medium (Scotts Company, 14111 Scottslawn Road, Marysville, Ohio 43041) comprising spaghnum peat moss, vermiculite, wetting agent and starter nutrients and treated with postemergence applications of some of the test chemicals formulated in the same manner. Plants ranged in height from 2 to 18 cm (1- to 4-leaf stage) for postemergence treatments.
(§4) Treated plants and controls were maintained in a greenhouse for 13 to 15 days, after which time all treated plants were visually evaluated and compared to controls. Plant response ratings, summarized in Table B, are based on a scale of 0 to 100 where 0 is no effect and 100 is complete control. A dash (-) response means no test result.

[10] = tested on: morningglory (Ipomoea coccinea); assay: Test B pre-/postemergence plant response
Description: as §2, §3, §4

[11] = tested on: soybean (Glycine max); assay: Test B pre-/postemergence plant response
Description: as §2, §3, §4

[12] = tested on: wheat (Triticum aestivum); assay: Test B pre-/postemergence plant response
Description: as §2, §3, §4

[13] = Postemergence, 125 g ai/ha, visual injury, 0 to 100 scale (0 no effect, 100 complete control), approx. ten days
[14] = Postemergence, 500 g ai/ha, 0 to 100 scale, 0 = no effect, 100 = complete control, approx. ten days
[15] = Preemergence, 125 g ai/ha, 0 to 100 scale, 0 = no effect, 100 = complete control
[16] = Preemergence, 500 g ai/ha, visual injury, 0 to 100 scale (0 no effect, 100 complete control), approx. ten days
[17] = 250 g ai/ha, Preemergence, 0 to 100 scale
[18] = Postemergence, 31 g ai/ha, scale 0 to 100 (0 no effect, 100 complete control)
[19] = Postemergence, 62 g ai/ha, scale 0 (no effect) to 100 (complete control), 13 to 15 days
[20] = Postemergence, 125 g ai/ha, visual rating after 13 to 15 days, scale 0 (no effect) to 100 (complete control)
[21] = Postemergence, 250 g ai/ha, scale 0 to 100
[22] = Preemergence, 31 g ai/ha, scale 0 to 100 (0 no effect, 100 complete control)
[23] = Preemergence, 62 g ai/ha, scale 0 to 100, 0 no effect, 100 complete control
[24] = Preemergence, 125 g ai/ha, 0 to 100 scale

2-(3,5-difluorophenyl)-5-[(2-hydroxy-4-oxobicyclo[3.2.1]oct-2-en-3-yl)carbonyl]-3-(2-methoxyethyl)-4(3H)-pyrimidinone [Compound 243]
Barnyardgrass plant response rating [1, 13]: 80 | Plant response rating, Barnyardgrass [1, 14]: 100 | Plant response rating, Barnyardgrass [1, 15]: 0 | Plant response rating, Barnyardgrass [1, 16]: 100 | Corn plant response rating [2, 13]: 10 | Plant response rating, Corn [2, 14]: 70 | Plant response rating, Corn [2, 15]: 0 | Plant response rating, Corn [2, 16]: 0 | Foxtail, Giant plant response rating [3, 13]: 80 | Plant response rating, Foxtail, Giant [3, 14]: 90 | Plant response rating, Foxtail, Giant [3, 15]: 40 | Plant response rating, Foxtail, Giant [3, 16]: 90 | Crabgrass, Large plant response rating [4, 13]: 70 | Plant response rating, Crabgrass, Large [4, 14]: 90 | Plant response rating, Crabgrass, Large [4, 15]: 90 | Plant response rating, Crabgrass, Large [4, 16]: 100 | Morningglory plant response rating [5, 13]: 80 | Plant response rating, Morningglory [5, 14]: 90 | Plant response rating, Morningglory [5, 15]: 20 | Plant response rating, Morningglory [5, 16]: 90 | Pigweed plant response rating [6, 13]: 100 | Plant response rating, Pigweed [6, 14]: 100 | Plant response rating, Pigweed [6, 15]: 50 | Plant response rating, Pigweed [6, 16]: 100 | Velvetleaf plant response rating [7, 13]: 100 | Plant response rating, Velvetleaf [7, 14]: 100 | Plant response rating, Velvetleaf [7, 15]: 70 | Plant response rating, Velvetleaf [7, 16]: 100 | Wheat plant response rating [8, 13]: 0 | Plant response rating, Wheat [8, 14]: 40 | Plant response rating, Wheat [8, 15]: 0 | Plant response rating, Wheat [8, 16]: 0 | Plant response rating, Cocklebur [9, 17]: 100 | Plant response rating, Cocklebur [9, 18]: 0 | Plant response rating, Cocklebur [9, 19]: 0 | Plant response rating, Cocklebur [9, 20]: 35 | Cocklebur plant response rating [9, 21]: 45 | Plant response rating, Cocklebur [9, 22]: 0 | Plant response rating, Cocklebur [9, 23]: 25 | Cocklebur plant response rating [9, 24]: 65 | Plant response rating, Morningglory [10, 17]: 98 | Plant response rating, Morningglory [10, 18]: 45 | Plant response rating, Morningglory [10, 19]: 45 | Plant response rating, Morningglory [10, 20]: 70 | Morningglory plant response rating [10, 21]: 75 | Plant response rating, Morningglory [10, 22]: 0 | Plant response rating, Morningglory [10, 23]: 40 | Morningglory plant response rating [10, 24]: 70 | Plant response rating, Soybean [11, 17]: 80 | Plant response rating, Soybean [11, 18]: 70 | Plant response rating, Soybean [11, 19]: 75 | Plant response rating, Soybean [11, 20]: 85 | Soybean plant response rating [11, 21]: 98 | Plant response rating, Soybean [11, 22]: 0 | Plant response rating, Soybean [11, 23]: 10 | Plant response rating, Wheat [12, 17]: 5 | Plant response rating, Wheat [12, 18]: 0 | Plant response rating, Wheat [12, 19]: 5 | Plant response rating, Wheat [12, 20]: 30 | Wheat plant response rating [12, 21]: 30 | Plant response rating, Wheat [12, 22]: 0 | Plant response rating, Wheat [12, 23]: 0 | Wheat plant response rating [12, 24]: 0

5-[(1-ethyl-5-hydroxy-1H-pyrazol-4-yl)carbonyl]-2-phenyl-3-(phenylmethyl)-4(3H)-pyrimidinone [Compound 20]
Barnyardgrass plant response rating [1, 13]: 50 | Plant response rating, Barnyardgrass [1, 14]: 90 | Plant response rating, Barnyardgrass [1, 15]: 30 | Plant response rating, Barnyardgrass [1, 16]: 60 | Corn plant response rating [2, 13]: 0 | Plant response rating, Corn [2, 14]: 10 | Plant response rating, Corn [2, 15]: 0 | Plant response rating, Corn [2, 16]: 0 | Foxtail, Giant plant response rating [3, 13]: 30 | Plant response rating, Foxtail, Giant [3, 14]: 60 | Plant response rating, Foxtail, Giant [3, 15]: 0 | Plant response rating, Foxtail, Giant [3, 16]: 10 | Crabgrass, Large plant response rating [4, 13]: 90 | Plant response rating, Crabgrass, Large [4, 14]: 90 | Plant response rating, Crabgrass, Large [4, 15]: 50 | Plant response rating, Crabgrass, Large [4, 16]: 80 | Morningglory plant response rating [5, 13]: 80 | Plant response rating, Morningglory [5, 14]: 90 | Plant response rating, Morningglory [5, 15]: 0 | Plant response rating, Morningglory [5, 16]: 100 | Pigweed plant response rating [6, 13]: 100 | Plant response rating, Pigweed [6, 14]: 100 | Plant response rating, Pigweed [6, 15]: 80 | Plant response rating, Pigweed [6, 16]: 100 | Velvetleaf plant response rating [7, 13]: 100 | Plant response rating, Velvetleaf [7, 14]: 100 | Plant response rating, Velvetleaf [7, 15]: 80 | Plant response rating, Velvetleaf [7, 16]: 90 | Wheat plant response rating [8, 13]: 0 | Plant response rating, Wheat [8, 14]: 10 | Plant response rating, Wheat [8, 15]: 0 | Plant response rating, Wheat [8, 16]: 0 | Plant response rating, Cocklebur [9, 17]: 100 | Plant response rating, Cocklebur [9, 18]: 65 | Plant response rating, Cocklebur [9, 19]: 80 | Plant response rating, Cocklebur [9, 20]: 85 | Cocklebur plant response rating [9, 21]: 100 | Plant response rating, Cocklebur [9, 22]: 10 | Plant response rating, Cocklebur [9, 23]: 10 | Cocklebur plant response rating [9, 24]: 70 | Plant response rating, Morningglory [10, 17]: 100 | Plant response rating, Morningglory [10, 18]: 15 | Plant response rating, Morningglory [10, 19]: 20 | Plant response rating, Morningglory [10, 20]: 55 | Morningglory plant response rating [10, 21]: 70 | Plant response rating, Morningglory [10, 22]: 100 | Plant response rating, Morningglory [10, 23]: 100 | Morningglory plant response rating [10, 24]: 100 | Plant response rating, Soybean [11, 17]: 50 | Plant response rating, Soybean [11, 18]: 65 | Plant response rating, Soybean [11, 19]: 70 | Plant response rating, Soybean [11, 20]: 80 | Soybean plant response rating [11, 21]: 90 | Plant response rating, Soybean [11, 22]: 0 | Plant response rating, Soybean [11, 23]: 30 | Soybean plant response rating [11, 24]: 35 | Plant response rating, Wheat [12, 17]: 0 | Plant response rating, Wheat [12, 18]: 0 | Plant response rating, Wheat [12, 19]: 0 | Plant response rating, Wheat [12, 20]: 10 | Wheat plant response rating [12, 21]: 30 | Plant response rating, Wheat [12, 22]: 0 | Plant response rating, Wheat [12, 23]: 0 | Wheat plant response rating [12, 24]: 0
